Data from patent publication EP0647618A1, “NEW NON IONIC IODINE-CONTAINING DIMERS USEFUL AS X-RAY CONTRAST AGENTS, METHOD FOR THE PREPARATION THEREOF, AND GALENICAL COMPOSITIONS CONTAINING THEM” (CENTRO INVESTIGACION JUSTESA IMAGEN S.A., priority 1993, dated 1994).
Read-outs that look alike come from different tables or passages of the source.

Key:
RAT = assay: General toxicity, average lethal dose (DL50) in the rat, i.v.; format: in vivo
Procedure: (§1) On the other hand, radiologists need compounds with a wide range of uses: for example, angiography, urography, myelography, cisternography, lymphography, cardiography and gastrography. The products according to this invention fulfil the requirements for the above uses, as they have high water solubility, normally higher than 60% (w/v), which, in some cases, is as high as 100% at 20°C, without showing any tendency to crystallize. They also have a very low general toxicity, stated as the average lethal dose for the rat, DL₅₀.

[1] = Osmolality of aqueous solution at 300 mg I/ml; format: physicochemical; details: for OSMOLALITY mOsm/kg at 300 mg I/ml: 300 mg I/ml (Table II); for OSMOLALITY 37°C mOsm/kg at 300 mg I/ml: 300 mg I/ml (Table I)
physchem = format: physicochemical; details: for solubility: water
Procedure: as §1

[2] = Viscosity of aqueous solution at 300 mg I/ml; format: physicochemical; details: for VISCOSITY 37°C mPa.s 300 mg I/ml: 300 mg I/ml (Table I); for VISCOSITY mPas (37°C) at 300 mg I/ml: 300 mg I/ml (Table II)

SMILES	DL50 (RAT) via i.v. g I/kg (RAT)	OSMOLALITY mOsm/kg at 300 mg I/ml [1]	OSMOLALITY 37°C mOsm/kg at 300 mg I/ml [1]	SOLUBILITY IN WATER at 20° (physchem)	solubility (physchem)	VISCOSITY 37°C mPa.s 300 mg I/ml [2]	VISCOSITY mPas (37°C) at 300 mg I/ml [2]	SOLUBILITY IN WATER at 20° (physchem; 20°C (Table II))	solubility (physchem; 20°C (Table I), read-out: SOLUBILITY in water at 20°C (w/v))
CN(C(=O)CN(CCO)CC(=O)N(C)c1c(I)c(C(=O)NCC(O)CO)c(I)c(C(=O)NCC(O)CO)c1I)c1c(I)c(C(=O)NCC(O)CO)c(I)c(C(=O)NCC(O)CO)c1I (centres unmarked) [ICJ-1692, N,N'-Bis-{3,5-bis-[N-(2,3-dihydroxypropyl)carbamoyl]-2,4,6-triiodophenyl}-N,N'-dimethyl-3-(2-hydroxethyl)-3-azapentanediamide]	> 20 g I/kg	174 mOsm/kg	174 mOsm/kg	> 60%	> 600 mg/mL	9.3 mPa.s	9.3 mPas	–	–
O=C(CN(CCO)CC(=O)Nc1c(I)c(C(=O)NCC(O)CO)c(I)c(C(=O)NCC(O)CO)c1I)Nc1c(I)c(C(=O)NCC(O)CO)c(I)c(C(=O)NCC(O)CO)c1I (centres unmarked) [ICJ-1192, N,N'-Bis-{3,5-bis-[N-(2,3-dihydroxypropyl)carbamoyl]-2,4,6-triiodophenyl}-3-(2-hydroxyethyl)-3-azapentanediamide]	> 25 g I/kg	167 mOsm/kg	167 mOsm/kg	–	–	9.4 mPa.s	9.4 mPas	> 60%	> 600 mg/mL
